Data published in patent publication US20210260101A1, “POTENTIATED ANTIBIOTIC COMPOSITIONS AND METHODS OF USE FOR TREATING BACTERIAL INFECTIONS AND BIOFILMS” (priority 2018, published 2021).
Converted amounts (≈) assume the structure as drawn. Where two headings read alike, the source gives them in different places.

Tests used:
[1] = tested on: PA OU19; experiment: Checkerboard assay, PA OU19; assay type: cell-based, Pseudomonas aeruginosa; conditions: Pseudomonas aeruginosa, PA OU19
Procedure: (§1) Cells were grown at 35° C. with shaking. The OD600 (optical density at 600 nm) was monitored and recorded for each sample over 24 hr. Each checkerboard trial was done in triplicate using sterile Greiner CellStar™ flat bottom polystyrene plates, catalog #655180. Each growth curve was done in duplicate.

[2] = tested on: MRSA USA 300 ATCC 1717; experiment: Checkerboard MIC assay against MRSA USA300 (Example 1); assay type: cell-based, Staphylococcus aureus; conditions: MRSA USA300; for MIC: Staphylococcus aureus, agent alone, read-out: MIC of antibiotic only
[3] = tested on: PA OU22; experiment: Checkerboard assay, PA OU22; assay type: cell-based, Pseudomonas aeruginosa; conditions: Pseudomonas aeruginosa, PA OU22
Procedure: as §1

[4] = tested on: PA OU15; experiment: Checkerboard assay, PA OU15; assay type: cell-based, Pseudomonas aeruginosa; conditions: Pseudomonas aeruginosa, PA OU15
Procedure: as §1

[5] = tested on: MRSA OU11 biofilms; experiment: MBEC assay (MICCP and MBEC), MRSA OU11; assay type: cell-based, Staphylococcus aureus
Procedure: (§2) Bacterial culture was inoculated in an MBEC pronged-inoculator and incubated for 24 hr to allow biofilm formation. […] The change in optical density at 600 nm (Δ OD600) was measured. Minimum inhibitory concentration (MIC) of each drug is determined as the lowest concentration that inhibited cell growth (ΔOD600<0.05). Fractional inhibitory concentration index (FICI) was calculated as: […]
(§3) Synergistic effects are determined using EUCAST guidelines: synergy (FICI≤0.5), additivity (0.5<FICI<1), and indifference (FICI>1). The treated pronged-inoculator was then washed and transferred to a recovery plate with 200 μL MHB/well to sonicate and recover any remaining biofilm bacteria. The recovery plate was then incubated overnight before measuring ΔOD600 to determine MBECs and FICIs of the drugs tested on the biofilms.
(§4) MBEC assays were utilized on MRSA OU6 and MRSA OU11 and a lab strain MRSA ATCC 43300. The MRSA bacteria were used to inoculate a 96-well inoculation plate, where MRSA biofilms were grown on prongs protruding from the plate lid, known as the MBEC inoculator lid and based on the Calgary biofilm device. […] The final step was moving the treated inoculation lid to a third plate (the recovery plate) containing growth-media only and using sonication to dislodge the biofilm and recover cells remaining in the biofilm. In this manner, the synergy of BPEI and ampicillin against MRSA biofilms was evaluated. Standard CLSI (Clinical & Laboratory Standards Institute) guidelines describe a standard MIC assay using 96-well plates inoculated with a standard cell density, usually ˜10^6 CFU/mL. However, the MIC data reported here is non-standard because, rather than inoculation via micropipette transfer from an overnight culture, inoculation of the challenge plate occurs from the biofilm-coated inoculation lid where treatment challenge disrupts the protective biofilm EPS matrix. […] The MBEC is determined from cell growth in the recovery plate and reflects the ability of BPEI600, ampicillin, or its combinations to kill the biofilm remaining attached to the prongs of the inoculation lid. […]

[6] = tested on: MRSA 43300 biofilms; experiment: MBEC assay (MICCP and MBEC), MRSA 43300; assay type: cell-based, Staphylococcus aureus
Procedure: as §2, §3, §4

[7] = tested on: MRSA OU6 biofilms; experiment: MBEC assay (MICCP and MBEC), MRSA OU6; assay type: cell-based, Staphylococcus aureus
Procedure: as §2, §3, §4

[8] = tested on: S. epidermidis ATCC 12228 (MSSE 12228); experiment: MIC/potentiation against MSSE 12228; assay type: cell-based, Staphylococcus epidermidis; conditions: for MIC of antibiotic only: agent alone
[9] = tested on: S. epidermidis ATCC 35984 (MRSE 35984); experiment: MIC/potentiation against MRSE 35984 (Example 1); assay type: cell-based, Staphylococcus epidermidis; conditions: for MIC of antibiotic only: agent alone
[10] = tested on: MRSA clinical isolate OU6; experiment: Clinical laboratory susceptibility (MicroScan), MRSA isolate 6; assay type: cell-based, S. aureus; conditions: MicroScan PC33 gram positive panel
[11] = tested on: MRSA clinical isolate OU11; experiment: Clinical laboratory susceptibility (MicroScan), MRSA isolate 11; assay type: cell-based, S. aureus; conditions: MicroScan PC33 gram positive panel
[12] = tested on: clinical isolates OU15, OU19, and OU22; experiment: Checkerboard assay, isolates OU15, OU19 and OU22 reported together; assay type: cell-based, Pseudomonas aeruginosa; conditions: for MIC: Pseudomonas aeruginosa; for interaction with BPEI600: isolates OU15, OU19, OU22 (data not shown)
Procedure: as §1

[13] = read-out: cefepime MIC with 16 μg/mL of BPEI600

For `CO/N=C(\C(=O)N[C@@H]1C(=O)N2C(C(=O)[O-])=C(C[N+]3(C)CCCC3)CS[C@H]12)c1csc(N)n1` [cefepime], the MIC [1, 13] was 8 µg/mL, the MIC ([1]; agent alone, read-out: MIC) was 64 µg/mL and the “MIC with 4 μg/ml (6.75 μM) 600-Da BPEI” value [2] was 1 µg/mL. For the same molecule, the MIC [2] was 4 µg/mL, the MIC [3, 13] was 8 µg/mL and the MIC ([3]; agent alone, read-out: MIC) was 128 µg/mL. It also gave an MIC [4, 13] of 0.5 µg/mL and an MIC ([4]; agent alone, read-out: MIC) of 32 µg/mL.

With `CC1(C)S[C@@H]2[C@H](NC(=O)[C@H](N)c3ccccc3)C(=O)N2[C@H]1C(=O)O` [ampicillin] the MICCP ([5]; MRSA OU11, challenge plate, agent alone) was 128 µg/mL, the “Ampicillin MBEC + 64 μg/mL BPEI” value ([5]; MRSA OU11 biofilm) was 32 µg/mL and the MBEC ([5]; MRSA OU11 biofilm, agent alone) was greater than 256 µg/mL. The MICCP ([6]; MRSA 43300, challenge plate, agent alone) was 128 µg/mL, the “Ampicillin MBEC + 64 μg/mL BPEI” value ([6]; MRSA 43300 biofilm) was 2 µg/mL and the MBEC ([6]; MRSA 43300 biofilm, agent alone) was greater than 256 µg/mL. The MICCP ([7]; MRSA OU6, challenge plate, agent alone) was 256 µg/mL, the “Ampicillin MBEC + 64 μg/mL BPEI” value ([7]; MRSA OU6 biofilm) was 64 µg/mL and the MBEC ([7]; MRSA OU6 biofilm, agent alone) was greater than 256 µg/mL.

With `CN[C@H](CC(C)C)C(=O)N[C@H]1C(=O)N[C@@H](CC(N)=O)C(=O)N[C@H]2C(=O)N[C@H]3C(=O)N[C@H](C(=O)N[C@H](C(=O)O)c4cc(O)cc(O)c4-c4cc3ccc4O)[C@H](O)c3ccc(c(Cl)c3)Oc3cc2cc(c3O[C@@H]2O[C@H](CO)[C@@H](O)[C@H](O)[C@H]2O[C@H]2C[C@](C)(N)[C@H](O)[C@H](C)O2)Oc2ccc(cc2Cl)[C@H]1O` [vancomycin] the “MIC, antibiotic + 2 μg/ml (3.375 μM) 600-Da BPEI” value (“MIC, antibiotic + 2 μg/ml” below) [8] was 1 µg/mL, the “MIC, antibiotic + 4 μg/ml (6.75 μM) 600-Da BPEI” value (shortened to “MIC, antibiotic + 4 μg/ml”) [8] was 1 µg/mL and the “MIC of antibiotic only” value [8] was 1 µg/mL. For the same molecule, the “MIC, antibiotic + 2 μg/ml” value [9] was 2 µg/mL, the “MIC, antibiotic + 4 μg/ml” value [9] was 0.5 µg/mL and the “MIC of antibiotic only” value [9] was 2 µg/mL. For the same molecule, the MIC [10] was 2 µg/mL (≈ 1.38 µM) and the MIC [11] was 1 µg/mL (≈ 0.69 µM).

For `C[C@@H](O)[C@H]1C(=O)N2C(C(=O)O)=C(SCCN=CN)C[C@H]12` [imipenem], the “MIC with 4 μg/ml (6.75 μM) 600-Da BPEI” value [2] was 0.03 µg/mL and the MIC [2] was 4 µg/mL.

Work on Gentamicin yielded an MIC [10] of no more than 4 µg/mL and an MIC [11] of no more than 4 µg/mL.

Work on `CCCCCCCCCC(=O)N[C@@H](Cc1c[nH]c2ccccc12)C(=O)N[C@H](CC(N)=O)C(=O)N[C@@H](CC(=O)O)C(=O)N[C@@H]1C(=O)NCC(=O)N[C@@H](CCCN)C(=O)N[C@@H](CC(=O)O)C(=O)N[C@H](C)C(=O)N[C@@H](CC(=O)O)C(=O)NCC(=O)N[C@H](CO)C(=O)N[C@@H]([C@H](C)CC(=O)O)C(=O)N[C@@H](CC(=O)c2ccccc2N)C(=O)O[C@@H]1C` [Daptomycin] yielded an MIC [10] of no more than 0.5 µg/mL and an MIC [11] of no more than 0.5 µg/mL.

Work on `CCC[C@@H]1C[C@@H](C(=O)N[C@@H]([C@H]2O[C@H](SC)[C@H](O)[C@@H](O)[C@H]2O)[C@H](C)Cl)N(C)C1` [Clindamycn] yielded an MIC [10] greater than 4 µg/mL and an MIC [11] greater than 4 µg/mL.

In the case of `C[C@@H](O)[C@H]1C(=O)N2C(C(=O)O)=C(S[C@@H]3CN[C@H](C(=O)N(C)C)C3)[C@H](C)[C@H]12` [meropenem], the MIC ([12]; isolates OU15, OU19, OU22, agent alone (data not shown), read-out: MIC) is reported as 16 to 64 µg/mL and the “interaction with BPEI600” value [12] is reported as “no synergy (no synergy (FICI≥1))”.

`CO/N=C(\C(=O)N[C@@H]1C(=O)N2C(C(=O)O)=CCS[C@H]12)c1csc(N)n1` [ceftizoxime] was tested, and the “MIC, antibiotic + 32 μg/ml (20 μM) PEG1000BPEI600” value [2] was 8 µg/mL, the “MIC, antibiotic + 64 μg/ml (40 μM) PEG1000BPEI600” value [2] was 0.5 µg/mL and the MIC [2] was 128 µg/mL.

For `CC1=C(C(=O)O)N2C(=O)[C@@H](NC(=O)[C@H](N)c3ccccc3)[C@H]2SC1` [cephalexin], the “MIC with 4 μg/ml (6.75 μM) 600-Da BPEI” value [2] was 0.5 µg/mL and the MIC [2] was 2 µg/mL.

`CC1(C)S[C@@H]2[C@H](NC(=O)[C@H](N)c3ccc(O)cc3)C(=O)N2[C@H]1C(=O)O` [amoxicillin] was tested, and the “MIC with 4 μg/ml (6.75 μM) 600-Da BPEI” value [2] was 1 µg/mL and the MIC [2] was 4 µg/mL.

`CC(=O)NC[C@H]1CN(c2ccc(N3CCOCC3)c(F)c2)C(=O)O1` [linezolid] was tested, and the “MIC with 4 μg/ml (6.75 μM) 600-Da BPEI” value [2] was 0.5 µg/mL, the MIC [2] was 0.5 µg/mL and the “MIC, antibiotic + 2 μg/ml” value [8] was 0.25 µg/mL. The “MIC, antibiotic + 4 μg/ml” value [8] was 0.25 µg/mL, the “MIC of antibiotic only” value [8] was 0.25 µg/mL and the “MIC, antibiotic + 2 μg/ml” value [9] was 0.5 µg/mL. For the same molecule, the “MIC, antibiotic + 4 μg/ml” value [9] was 0.25 µg/mL, the “MIC of antibiotic only” value [9] was 1 µg/mL and the MIC [10] was 2 µg/mL (≈ 5.93 µM). The MIC [11] was 2 µg/mL (≈ 5.93 µM).

`CN(C)[C@@H]1C(O)=C(C(N)=O)C(=O)[C@@]2(O)C(O)=C3C(=O)c4c(O)cccc4[C@@](C)(O)[C@H]3C[C@@H]12` [Tetracycline] showed an MIC [10] of no more than 4 µg/mL and an MIC [11] of no more than 4 µg/mL.

`CC[C@H]1OC(=O)[C@H](C)[C@@H](O[C@H]2C[C@@](C)(OC)[C@@H](O)[C@H](C)O2)[C@H](C)[C@@H](O[C@@H]2O[C@H](C)C[C@H](N(C)C)[C@H]2O)[C@](C)(O)C[C@@H](C)C(=O)[C@H](C)[C@@H](O)[C@]1(C)O` [Erythromycin] was tested, and the MIC [12] was 256 µg/mL, the MIC ([12]; read-out: erythromycin MIC in the presence of 16 μg/mL of BPEI600) was 64 µg/mL and the “factor of reduction of erythromycin MIC by BPEI600” value ([12]; data not shown) was 4. The “interaction with BPEI600” value [12] was “exhibited synergy”, the MIC [10] was greater than 4 µg/mL and the MIC [11] was greater than 4 µg/mL.
